According to ChEMBL document CHEMBL4321836, “Discovery of BAY-298 and BAY-899: Tetrahydro-1,6-naphthyridine-Based, Potent, and Selective Antagonists of the Luteinizing Hormone Receptor Which Reduce Sex Hormone Levels in Vivo” (J Med Chem, 2019):

Columns and labels:
[1] = tested on: Rattus norvegicus; assay: Downregulation of human luteinizing hormone-induced RUNX1 mRNA expression in cetrorelix-treated iv dosed female rat after 2 hrs by Taqman probe based RT-PCR analysis; assay type: functional, organism-based
[2] = biological target: T1, Lutropin-choriogonadotropic hormone receptor (Homo sapiens, UniProt P22888); assay: (§1) Negative allosteric modulation of human luteinizing hormone receptor assessed as reduction in glycoprotein human luteinizing hormone-induced agonist activity preincubated for 20 mins followed by 100 times EC80 of agonist addition and measured after 60 mins by cell based TR-FRET assay relative to control
[3] = biological target: T1, Lutropin-choriogonadotropic hormone receptor; assay: (§2) Negative allosteric modulation of human luteinizing hormone receptor assessed as Emax for Org 43553-induced agonist activity at 0.84 nM to 17 uM preincubated for 20 mins followed by 16 times EC80 of agonist addition and measured after 60 mins by cell based TR-FRET assay relative to control; details: at 0.00084 to 17 µM
[4] = tested on: Rattus norvegicus; assay: Downregulation of human luteinizing hormone-induced COX-2 mRNA expression in cetrorelix-treated iv dosed female rat after 2 hrs by Taqman probe based RT-PCR analysis; assay type: functional, organism-based
[5] = biological target: T1, Lutropin-choriogonadotropic hormone receptor; assay: as §1, with “4” for “100”
[6] = biological target: T1, Lutropin-choriogonadotropic hormone receptor; assay: Negative allosteric modulation of human luteinizing hormone receptor assessed as reduction in Org 43553-induced agonist activity preincubated for 20 mins followed by 4 times EC80 of agonist addition and measured after 60 mins by cell based TR-FRET assay relative to control
[7] = biological target: T1, Lutropin-choriogonadotropic hormone receptor; assay: as §1, with “10” for “100”
[8] = tested on: Rattus norvegicus; assay: Downregulation of human luteinizing hormone-induced progesterone expression in plasma of cetrorelix-treated female rat at 14 mg/kg, iv after 2 hrs by radioimmunoassay method (reference value: 243 nM); assay type: functional
[9] = biological target: T1, Lutropin-choriogonadotropic hormone receptor; assay: as §1, with “16” for “100”
[10] = tested on: Rattus norvegicus; assay: Downregulation of human luteinizing hormone-induced progesterone expression in plasma of cetrorelix-treated female rat at 4.5 mg/kg, iv after 2 hrs by radioimmunoassay method (reference value: 243 nM); assay type: functional
[11] = Plasma concentration in female rat at 4.5 to 72 mg/kg, po administered once daily for 8 days and measured on day 8; assay type: ADME, organism-based
[12] = biological target: T1, Lutropin-choriogonadotropic hormone receptor; assay: (§3) Negative allosteric modulation of human luteinizing hormone receptor assessed as Emax for Org 43553-induced agonist activity at 0.84 nM to 17 uM preincubated for 20 mins followed by 4 times EC80 of agonist addition and measured after 60 mins by cell based TR-FRET assay relative to control
[13] = Fraction unbound in female rat at 4.5 to 72 mg/kg, po administered once daily for 8 days; assay type: ADME, organism-based; details: in vivo
[14] = tested on: Rattus norvegicus; assay: Downregulation of 0.1 ug human luteinizing hormone-induced testosterone expression in plasma of cetrorelix-treated male rat at 14 mg/kg, iv after 2 hrs by radioimmunoassay method (reference value: 33.4 nM); assay type: functional
[15] = biological target: T1, Lutropin-choriogonadotropic hormone receptor; assay: (§4) Negative allosteric modulation of human luteinizing hormone receptor assessed as Emax for Org 43553-induced agonist activity at 0.84 nM to 17 uM preincubated for 20 mins followed by 1 times EC80 of agonist addition and measured after 60 mins by cell based TR-FRET assay relative to control
[16] = biological target: T1, Lutropin-choriogonadotropic hormone receptor; assay: as §4, with “glycoprotein human luteinizing hormone-induced” for “Org 43553-induced”
[17] = tested on: Rattus norvegicus; assay: Downregulation of estradiol level in proestrus staged-female rat serum at 36 mg/kg, po administered once daily for 8 days and measured by radioimmunoassay method (reference value: 125 pmol/L); assay type: functional
[18] = biological target: T1, Lutropin-choriogonadotropic hormone receptor; assay: Negative allosteric modulation of human luteinizing hormone receptor assessed as reduction in Org 43553-induced agonist activity preincubated for 20 mins followed by 16 times EC80 of agonist addition and measured after 60 mins by cell based TR-FRET assay relative to control
[19] = biological target: T1, Lutropin-choriogonadotropic hormone receptor; assay: as §2, with “glycoprotein human luteinizing hormone-induced” for “Org 43553-induced”, “10” for “16”
[20] = tested on: Rattus norvegicus; assay: Downregulation of human luteinizing hormone-induced testosterone expression in plasma of cetrorelix-treated iv dosed male rat at after 2 hrs by radioimmunoassay method; assay type: functional, organism-based
[21] = biological target: T1, Lutropin-choriogonadotropic hormone receptor; assay: Negative allosteric modulation of human luteinizing hormone receptor assessed as Emax for Org 43553-induced agonist activity at 0.84 nM to 17 uM preincubated for 20 mins followed by 10 times EC80 of agonist addition and measured after 60 mins by cell based TR-FRET assay relative to control
[22] = biological target: T1, Lutropin-choriogonadotropic hormone receptor; assay: Agonist activity at human luteinizing hormone receptor incubated for 60 mins by cell based TR-FRET assay
[23] = Free plasma concentration in female rat at 4.5 to 72 mg/kg, po administered once daily for 8 days; assay type: ADME, organism-based; details: in vivo, 192 h
[24] = tested on: Rattus norvegicus; assay: Reversal of human luteinizing hormone-induced suppression of aromatase mRNA expression in cetrorelix-treated iv dosed female rat after 2 hrs by Taqman probe based RT-PCR analysis; assay type: functional, organism-based
[25] = tested on: Rattus norvegicus; assay: Effect on folliculo-genesis in 4 day cycle of po dosed normally cycling female rat assessed as induction of cycle arrest in diestrus stage by observing vaginal smears administered once daily for 8 days; assay type: functional, organism-based
[26] = biological target: T1, Lutropin-choriogonadotropic hormone receptor; assay: as §3, with “glycoprotein human luteinizing hormone-induced” for “Org 43553-induced”
[27] = tested on: Rattus norvegicus; assay: Downregulation of estradiol level in proestrus staged-female rat serum at 9 mg/kg, po administered once daily for 8 days and measured by radioimmunoassay method (reference value: 125 pmol/L); assay type: functional
[28] = tested on: Rattus norvegicus; assay: Downregulation of estradiol level in proestrus staged-female rat serum at 4.5 mg/kg, po administered once daily for 8 days and measured by radioimmunoassay method (reference value: 125 pmol/L); assay type: functional
[29] = tested on: Rattus norvegicus; assay: Downregulation of estradiol level in po dosed proestrus staged-female rat serum administered once daily for 8 days and measured by radioimmunoassay method; assay type: functional, organism-based
[30] = tested on: Rattus norvegicus; assay: Downregulation of human luteinizing hormone-induced progesterone expression in plasma of cetrorelix-treated iv dosed female rat after 2 hrs by radioimmunoassay method; assay type: functional, organism-based
[31] = biological target: T1, Lutropin-choriogonadotropic hormone receptor; assay: as §1, with “1” for “100”
[32] = biological target: T1, Lutropin-choriogonadotropic hormone receptor; assay: as §2, with “glycoprotein human luteinizing hormone-induced” for “Org 43553-induced”, “100” for “16”
[33] = tested on: Rattus norvegicus; assay: Downregulation of human luteinizing hormone-induced progesterone expression in plasma of cetrorelix-treated female rat at 27 mg/kg, iv after 2 hrs by radioimmunoassay method (reference value: 243 nM); assay type: functional
[34] = biological target: T1, Lutropin-choriogonadotropic hormone receptor; assay: Negative allosteric modulation of human luteinizing hormone receptor assessed as reduction in Org 43553-induced agonist activity preincubated for 20 mins followed by 100 times EC80 of agonist addition and measured after 60 mins by cell based TR-FRET assay relative to control

T1 sequence (P22888 whole entry): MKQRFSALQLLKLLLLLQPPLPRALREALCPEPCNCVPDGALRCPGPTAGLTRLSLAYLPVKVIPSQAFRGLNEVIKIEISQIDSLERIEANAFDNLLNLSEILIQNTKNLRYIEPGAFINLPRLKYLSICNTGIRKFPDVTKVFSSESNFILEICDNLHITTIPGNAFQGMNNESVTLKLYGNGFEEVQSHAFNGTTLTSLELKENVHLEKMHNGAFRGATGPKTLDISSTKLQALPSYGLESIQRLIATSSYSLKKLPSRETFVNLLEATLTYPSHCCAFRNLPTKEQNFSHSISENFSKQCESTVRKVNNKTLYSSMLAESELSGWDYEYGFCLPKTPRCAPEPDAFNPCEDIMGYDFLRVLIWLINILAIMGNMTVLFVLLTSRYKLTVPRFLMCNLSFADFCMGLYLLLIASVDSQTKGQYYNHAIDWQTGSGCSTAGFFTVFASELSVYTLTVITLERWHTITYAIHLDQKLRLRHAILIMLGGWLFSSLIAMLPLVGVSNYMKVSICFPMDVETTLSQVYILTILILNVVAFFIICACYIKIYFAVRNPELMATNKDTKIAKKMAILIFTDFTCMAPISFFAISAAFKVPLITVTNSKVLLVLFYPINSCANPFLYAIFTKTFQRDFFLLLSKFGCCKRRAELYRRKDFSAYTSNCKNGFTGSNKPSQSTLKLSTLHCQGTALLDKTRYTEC

O=C(Nc1ccc(Oc2ccc(F)cc2)cc1)N1CCc2ncccc2[C@@H]1c1ccc(Cl)cc1
Activity [1]: Dose-dependent effect
IC50 [2]: 2500 nM
Emax [3]: 102%
Activity [4]: Dose-dependent effect
IC50 [5]: 200 nM
IC50 [6]: 1200 nM
IC50 [7]: 2200 nM
Activity [8]: 51 nM
IC50 [9]: 2200 nM
Activity [10]: 76 nM
concentration at 192 h [11]: 4 to 39 µM
Emax [12]: 102%
fraction unbound at 192 h [13]: 0.0024
Activity [14]: 2.5 nM
Emax [15]: 104%
Emax [16]: 99%
Activity [17]: 48 pmol/L
IC50 [18]: 1700 nM
Emax [19]: 106%
Activity [20]: Dose-dependent effect
Emax [21]: 102%
EC50 [22]: > 16000 nM
Cp(f) [23]: 0.024 µM
Activity [24]: Dose-dependent effect
Activity [25]: Dose-dependent effect
Emax [26]: 99%
Activity [27]: 80 pmol/L
Activity [28]: 118 pmol/L
Activity [29]: Dose-dependent effect
Activity [30]: Dose-dependent effect
IC50 [31]: 97 nM
Emax [32]: 98%
Activity [33]: 50 nM
IC50 [34]: 1500 nM
